PubChem BioAssay (NCI)
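Each compound was tested at five concentrations against cells in 96-well plates for 48 hours. At the GI50, growth is halved. TGI marks complete inhibition of growth.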

Assays:
Experiment in all cases: inhibition of tumour cell growth, NCI panel, 48 h
OVCAR-8 ovarian = test system: OVCAR-8 ovarian
SK-MEL-28 melanoma = test system: SK-MEL-28 melanoma
M14 melanoma = test system: M14 melanoma
SNB-75 CNS = test system: SNB-75 CNS
HL-60(TB) leukemia = test system: HL-60(TB) leukemia
HT29 colon = test system: HT29 colon
A498 renal = test system: A498 renal
TK-10 renal = test system: TK-10 renal
RPMI-8226 leukemia = test system: RPMI-8226 leukemia

Row | Compound | TGI (OVCAR-8 ovarian) [µM] | TGI (SK-MEL-28 melanoma) [µM] | TGI (M14 melanoma) [µM] | TGI (SNB-75 CNS) [µM] | TGI (HL-60(TB) leukemia) [µM] | TGI (HT29 colon) [µM] | TGI (A498 renal) [µM] | TGI (TK-10 renal) [µM] | TGI (RPMI-8226 leukemia) [µM] | GI50 (OVCAR-8 ovarian) [µM] | GI50 (SK-MEL-28 melanoma) [µM] | GI50 (M14 melanoma) [µM] | GI50 (SNB-75 CNS) [µM] | GI50 (HL-60(TB) leukemia) [µM] | GI50 (TK-10 renal) [µM] | GI50 (RPMI-8226 leukemia) [µM]
1 | N#CCN1C(=O)c2cc([N+](=O)[O-])cc3cc([N+](=O)[O-])cc(c23)C1=O | 56.4 | > 52.8 | 48.2 | 84.8 | > 24.1 | > 69.2 | > 100 | > 79.9 | > 38.3 |  |  |  |  |  |  | 
2 | CCOC(=O)C1Nc2ccccc2[C@H]2OCC[C@@H]12 (some centres undefined) | > 100 | > 100 | > 100 | > 100 | > 100 | > 100 | > 100 | > 100 |  |  |  |  |  |  |  | 
3 | O=C1OC(=O)c2c1c(-c1ccccc1)nc1ccccc21 | > 100 | > 100 | > 100 | > 100 | > 100 | > 100 | > 100 | > 100 | > 100 |  |  |  |  |  |  | 
4 | O=C(O)CCNS(=O)(=O)c1ccc([N+](=O)[O-])cc1 | > 100 | > 100 | > 100 | > 100 | > 100 | > 100 | > 100 | > 100 | > 100 |  |  |  |  |  |  | 
5 | NC1=NC(=O)C(CC(=O)Nc2ccc(Cl)cc2Cl)S1 (centres undefined) | > 100 | > 100 | > 100 | > 100 |  | > 100 | > 100 | > 100 | > 100 |  |  |  |  |  |  | 
6 | CC1=C(CC2C(=O)N(c3ccccc3)S(=O)(=O)NC2C)C(=O)N(c2ccccc2)S(=O)(=O)N1C (centres undefined) | > 100 | > 100 | > 100 | > 100 |  | > 100 |  | > 100 | > 100 |  |  |  |  |  |  | 
7 | CC(=O)/C(=C\c1ccccc1O)C(=O)Nc1ccccc1C | > 100 | 53.8 | 39.9 |  | 41.8 | 37.2 |  |  | 71.4 |  |  |  |  |  |  | 
8 | O=C(c1ccccc1)c1c(CC(O)c2ccncc2)n(C(=O)c2ccccc2)c2ccccc12 (centres undefined) | > 100 | 32.4 | 30.8 | 41.4 | 39.9 | 33.2 |  | 75.2 | 46.1 |  |  |  |  |  |  | 
9 | COc1cc(C2(C)SCCCS2)cc(OC)c1OC | > 100 | > 100 | > 100 | > 100 | > 100 | > 100 | > 100 | > 100 | > 100 |  |  |  |  |  |  | 
10 | CC1=C(C(=O)Nc2ccc(Cl)c(Cl)c2)C(c2ccc([N+](=O)[O-])cc2)C(C(=O)Nc2ccc(Cl)c(Cl)c2)=C(C)N1 | 8.58 | 9.93 | 3.82 | 20.5 |  | 7.55 | 14.8 | 55 | 8.63 |  |  |  |  |  |  | 
11 | N#CNc1nc(N)c(-c2ccc(Cl)cc2)c(C(=O)Nc2nccs2)n1 | > 100 | > 100 | > 100 | > 100 | > 100 | > 100 | > 100 | > 100 | > 100 |  |  |  |  |  |  | 
12 | O=C1c2ccccc2N2OC3(N4CCCC4)CCCCC3C12c1ccccc1 (centres undefined) | 32.9 | 76.2 | 34.6 | > 100 | 53.7 | 52.6 | > 100 |  | > 100 |  |  |  |  |  |  | 
13 | C[C@@H]1O[C@@H](O[C@@H]2[C@@H](O)[C@H](OCCc3ccc(O)c(O)c3)O[C@H](CO)[C@H]2OC(=O)/C=C/c2ccc(O)c(O)c2)[C@H](O)[C@H](OC2OC[C@](O)(CO)[C@H]2O)[C@H]1O (some centres undefined) | 40 | > 100 | > 100 | > 100 | > 100 |  |  | > 100 | > 100 | 18.7 | > 100 | > 100 | > 100 | > 100 | > 100 | 34.9
14 | O=C1C=C(O)C(=Cc2c(O)cc(O)cc2O)C(O)=C1 | > 100 |  | > 100 | > 100 | > 100 | > 100 | > 100 | > 100 | > 100 |  |  |  |  |  |  | 
15 | Cc1ccc(NC(=O)C(=O)C(C(=O)/C=C/c2ccccc2)C2OC(=O)c3ccccc32)c(C)c1 (centres undefined) |  | > 100 | > 100 | > 100 | > 100 | > 100 | > 100 | > 100 | > 100 |  |  |  |  |  |  | 
16 | ClC1=C(Cl)C(Cl)(Cl)c2c3c(c4c(c21)C(Cl)(Cl)C(Cl)=C4Cl)C(Cl)(Cl)C(Cl)=C3Cl | > 100 | > 100 | > 100 |  | > 100 | > 100 |  |  | > 100 |  |  |  |  |  |  | 
17 | CC(C)(C)c1cc2nc(c1)C(C(F)(F)F)(C(F)(F)F)OB(Br)OC2(C(F)(F)F)C(F)(F)F | 0.427 | 18.6 | 3.38 | 13 |  | 12.1 |  | 5.5 | 3.76 |  |  |  |  |  |  | 
18 | Cc1cc(=O)c2c(O)cc3c(c2o1)CC=C(COC1OC(COC2OC(CO)C(O)C(O)C2O)C(O)C(O)C1O)CO3 (centres undefined) | > 100 | > 100 | > 100 | > 100 |  |  |  | > 100 |  |  |  |  |  |  |  | 
19 | c1ccc2c(c1)CCc1c-2n[nH]c1-c1[nH]nc2c1CCc1ccccc1-2 | > 100 | > 100 | > 100 | > 100 | > 100 | > 100 | > 100 | > 100 |  |  |  |  |  |  |  | 
